We go through nine compounds from US10736883B2, “Triazole furan compounds as agonists of the APJ receptor” (AMGEN INC., priority 2016, dated 2020).

For this test, the target named is APJ receptor (Homo sapiens (Human), UniProt P35414). The test is described as follows: [35S]GTPγS binding assay on membranes from CHO cells stably expressing human APJ receptor. The test is classed as biochemical. Conditions: membranes of CHO cells stably expressing human APJ receptor, means of several independent experiments, read-out: Activity hAPJ SPA EC50 IP. The essentials: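 Membranes from CHO cells stably expressing human APJ were incubated with 0.2 nM [35S]GTPγS and ligands for 90 min at RT in 20 mM HEPES pH 7.5, 5 mM MgCl2, 200 mM NaCl, 3 μM GDP, 0.1% BSA with WGA PS beads. Nonspecific binding was set with 100 μM GTPγS. EC50 came from non-linear regression.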
Chain of APJ receptor (P35414 whole entry): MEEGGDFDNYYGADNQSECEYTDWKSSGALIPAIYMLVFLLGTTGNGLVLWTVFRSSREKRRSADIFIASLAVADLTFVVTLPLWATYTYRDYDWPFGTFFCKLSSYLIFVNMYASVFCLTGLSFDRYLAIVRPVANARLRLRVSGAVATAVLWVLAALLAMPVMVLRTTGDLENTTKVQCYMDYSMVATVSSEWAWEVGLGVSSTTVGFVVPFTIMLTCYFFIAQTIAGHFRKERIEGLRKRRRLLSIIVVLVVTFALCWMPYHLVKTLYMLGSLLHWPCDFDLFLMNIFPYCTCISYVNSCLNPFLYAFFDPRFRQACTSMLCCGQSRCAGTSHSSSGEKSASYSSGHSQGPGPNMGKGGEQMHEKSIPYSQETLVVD
Turning to `COc1cccc(OC)c1-n1c(NS(=O)(=O)[C@@H]2C[C@@H](c3ccc(F)cc3)CN(C(C)=O)C2)nnc1-c1ccc(C)o1` (single isomer, unassigned) [Example 171.0, (3R,5S)-1-Acetyl-N-(4-(2,6-dimethoxyphenyl)-5-(5-methyl-2-furanyl)-4H-1,2,4-triazol-3-yl)-5-(4-fluorophenyl)-3-piperidinesulfonamide or (3S,5R)-1-acetyl-N-(4-(2,6-dimethoxyphenyl)-5-(5-methyl-2-furanyl)-4H-1,2,4-triazol-3-yl)-5-(4-fluorophenyl)-3-piperidinesulfonamide], the EC50 came out at 1.2 nM.

Consider `COc1cccc(OC)c1-n1c(NS(=O)(=O)[C@H]2CC[C@H]3CCCC(=O)N3C2)nnc1-c1ccc(C)o1` (single isomer, unassigned) [Example 173.0], for which the EC50 was found to be 1.6 nM. Consider `COc1cccc(OC)c1-n1c(NS(=O)(=O)[C@@H]2C[C@H](C#N)CN(c3ncc(F)cn3)C2)nnc1-c1ccc(C)o1` (single isomer, unassigned) [Example 174.0, (3R,5S)-5-Cyano-N-(4-(2,6-dimethoxyphenyl)-5-(5-methyl-2-furanyl)-4H-1,2,4-triazol-3-yl)-1-(5-fluoro-2-pyrimidinyl)-3-piperidinesulfonamide or (3S,5R)-5-cyano-N-(4-(2,6-dimethoxyphenyl)-5-(5-methyl-2-furanyl)-4H-1,2,4-triazol-3-yl)-1-(5-fluoro-2-pyrimidinyl)-3-piperidinesulfonamide], for which the EC50 came out at 1.9 nM. `COc1cccc(OC)c1-n1c(NS(=O)(=O)CCN2C(=O)[C@H](C)C[C@H]2C)nnc1-c1ccco1` (single isomer, unassigned) [Example 175.0]: the EC50 came out at 1.9 nM. For the compound `COc1cnc([C@H](O)[C@@H](C)S(=O)(=O)Nc2nnc(-c3ccc(C)o3)n2-c2c(OC)cccc2OC)cn1` (single isomer, unassigned) [Example 177.0, (1S,2R)—N-(4-(2,6-Dimethoxyphenyl)-5-(5-methyl-2-furanyl)-4H-1,2,4-triazol-3-yl)-1-hydroxy-1-(5-methoxy-2-pyrazinyl)-2-propanesulfonamide or (1R,2S)—N-(4-(2,6-dimethoxyphenyl)-5-(5-methyl-2-furanyl)-4H-1,2,4-triazol-3-yl)-1-hydroxy-1-(5-methoxy-2-pyrazinyl)-2-propanesulfonamide], the EC50 was 2.8 nM. With `COc1cccc(OC)c1-n1c(NS(=O)(=O)[C@H]2C[C@H](OC)CN(c3ncc(F)cn3)C2)nnc1-c1ccco1` (single isomer, unassigned) [Example 178.0] the figure was 3 nM. Turning to `COC[C@H]1CCCC(=O)N1C[C@@H](C)S(=O)(=O)Nc1nnc(-c2ccc(C)o2)n1-c1c(OC)cccc1OC` (single isomer, unassigned) [Example 185.0], the EC50 worked out at 33 nM. With `COc1cccc(OC)c1-n1c(NS(=O)(=O)[C@H]2CNC[C@H](c3ccc(F)cc3)C2)nnc1-c1ccco1` (single isomer, unassigned) [Example 188.0, (3R,5S)—N-(4-(2,6-Dimethoxyphenyl)-5-(2-furanyl)-4H-1,2,4-triazol-3-yl)-5-(4-fluorophenyl)-3-piperidinesulfonamide or (3S,5R)—N-(4-(2,6-dimethoxyphenyl)-5-(2-furanyl)-4H-1,2,4-triazol-3-yl)-5-(4-fluorophenyl)-3-piperidinesulfonamide] the figure was 75 nM; with `COc1cccc(OC)c1-n1c(NS(=O)(=O)C2C[C@@H]2c2ccc(Cl)cc2)nnc1-c1ccco1` (single isomer, unassigned) [Example 191.0, (1R,2S)-2-(4-Chlorophenyl)-N-(4-(2,6-dimethoxyphenyl)-5-(2-furanyl)-4H-1,2,4-triazol-3-yl)cyclopropanesulfonamide or (1S,2R)-2-(4-chlorophenyl)-N-(4-(2,6-dimethoxyphenyl)-5-(2-furanyl)-4H-1,2,4-triazol-3-yl)cyclopropanesulfonamide], 15 nM.
